Active and inactive are the calls of the source. No cut-off for these calls is given here.
Experiments:
KB [1] = assay: Growth inhibition of human KB cells by methylene blue assay; format: functional, cell-based
[2] = Inhibition of bovine cerebral cortex tubulin polymerization up to 30 mins; parameters: species or system Bos taurus
[3] = Inhibition of tubulin polymerization
KB [4] = assay: Antiproliferative activity against human KB cells after incubation for three generations by MTS assay; format: functional, cell-based
MCF7 = assay: Antiproliferative activity against human MCF7 cells after incubation for three generations by MTS assay; format: functional, cell-based
NCI-H460 = assay: Antiproliferative activity against human NCI-H460 cells after incubation for three generations by MTS assay; format: functional, cell-based
SF-268 = assay: Antiproliferative activity against human SF268 cells after three generation of incubation by MTS assay; format: functional, cell-based
KB [5] = assay: Cell cycle arrest in human KB cells assessed as accumulation at G2/M phase after 24 hrs using propidium iodide staining by flow cytometry; format: functional, cell-based
KB [6] = assay: Cell cycle arrest in human KB cells assessed as loss of accumulation at G0/G1 phase after 24 hrs using propidium iodide staining by flow cytometry; format: functional, cell-based
KB [7] = assay: Cell cycle arrest in human KB cells assessed as accumulation at G2/M phase at 400 nM after 24 hrs using propidium iodide staining by flow cytometry; format: functional
KB [8] = assay: Cell cycle arrest in human KB cells assessed as accumulation at G2/M phase at 800 nM after 24 hrs using propidium iodide staining by flow cytometry; format: functional
KB [9] = assay: Cell cycle arrest in human KB cells assessed as accumulation at G2/M phase at 400 nM using propidium iodide staining by flow cytometry; format: functional, cell-based; conditions: TDE = time-dependent effect
KB [10] = assay: Cell cycle arrest in human KB cells assessed as loss of accumulation at G0/G1 phase at 400 nM using propidium iodide staining by flow cytometry; format: functional, cell-based; conditions: TDE = time-dependent effect
KB [11] = assay: Cell cycle arrest in human KB cells assessed as accumulation at sub-G1 phase at 400 nM using propidium iodide staining by flow cytometry; format: functional, cell-based; conditions: TDE = time-dependent effect
[12] = (§1) Inhibition of bovine brain tubulin polymerization after 30 mins by […] assay; parameters: species or system Bos taurus
Bos taurus = species on record: Bos taurus; assay: as §1
HCT-116 [13] = assay: Antiproliferative activity against human HCT116 xenografted tumor histoculture at 1 uM after 48 hrs by hematoxylin staining; format: functional, cell-based
HCT-116 [14] = assay: Antiproliferative activity against human HCT116 xenografted tumor histoculture at 10uM after 48 hrs by hematoxylin staining; format: functional, cell-based
HCT-116 [15] = assay: Antiproliferative activity against human HCT116 xenografted tumor histoculture at 100 uM after 48 hrs by hematoxylin staining; format: functional, cell-based

| SMILES | IC50 (KB [1]) [nM] | further results |
| --- | --- | --- |
| Cc1ccc(C)c(Nc2cc(C)nc(-c3ccccc3O)n2)c1 | 3000 | – |
| COc1ccc2c(C(=O)c3cc(OC)c(OC)c(OC)c3)c(C)n(CCN3CCCCC3)c2c1 | 222 | – |
| COc1ccc2c(C(=O)c3cc(OC)c(OC)c(OC)c3)c(CCCO)[nH]c2c1 | 92 | – |
| CCCn1cc(C(=O)c2cc(OC)c(OC)c(OC)c2)c2ccc(OC)cc21 | 180 | – |
| COC(=O)c1[nH]c2cc(OC)ccc2c1C(=O)c1cc(OC)c(OC)c(OC)c1 | 5.5 | – |
| COc1ccc2c(C(=O)c3cc(OC)c(OC)c(OC)c3)cn(CCCN(C)C)c2c1 | 1700 | – |
| COc1ccc2c(C(=O)c3cc(OC)c(OC)c(OC)c3)cn(CCCCN(C)C)c2c1 | 6000 | – |
| CCCCCCc1[nH]c2cc(OC)ccc2c1C(=O)c1cc(OC)c(OC)c(OC)c1 | 37.8 | – |
| CCCc1[nH]c2cc(OC)ccc2c1C(=O)c1cc(OC)c(OC)c(OC)c1 | 11 | – |
| COc1ccc2c(C(=O)c3cc(OC)c(OC)c(OC)c3)cn(C)c2c1 | 34 | – |
| C1=NNCO1 [OXADIAZOLINE] | – | IC50 [2]: 4500 nM |
| COc1ccc2c(C(=O)c3cc(OC)c(OC)c(OC)c3)cn(CCO)c2c1 | 55 | – |
| O=C(/C=C/c1ccccc1)c1ccccc1 [CHALCONE] | – | IC50 [3]: 10000 nM |
| COc1ccc2c(C(=O)c3cc(OC)c(OC)c(OC)c3)cn(CCN3CCCCC3)c2c1 | 93 | – |
| COc1ccc2c(C(=O)c3cc(OC)c(OC)c(OC)c3)cn(CCN3CCC[C@@H]3CO)c2c1 | 500 | – |
| CCN(CC)CCn1cc(C(=O)c2cc(OC)c(OC)c(OC)c2)c2ccc(OC)cc21 | 1800 | – |
| COc1ccc2c(C(=O)c3cc(OC)c(OC)c(OC)c3)cn(CCCCO)c2c1 | 75 | – |
| COc1cc2c(c(N)c1OC)C(=O)/C(=C\c1cc(C)c(O)c(C)c1)C2 [INDANOCINE] | – | IC50 [3]: 1700 nM |
| COc1ccc2c(C(=O)c3cc(OC)c(OC)c(OC)c3)c(CN(C)C)[nH]c2c1 | 49.8 | – |
| COc1ccc2c(C(=O)c3cc(OC)c(OC)c(OC)c3)cn(C(=O)N3CCOCC3)c2c1 | 237 | – |
| CCOC(=O)Cc1[nH]c2cc(OC)ccc2c1C(=O)c1cc(OC)c(OC)c(OC)c1 | 3.9 | – |
| COc1ccc2c(C(=O)c3cc(OC)c(OC)c(OC)c3)cn(Cc3ccncc3)c2c1 | 210 | – |
| Cc1ccc(CCC(=O)Nc2ncc(Cc3cc(Cl)ccc3Cl)s2)o1 | 187 | IC50 (KB [4]): 187 nM; IC50 (MCF7): 236 nM; IC50 (NCI-H460): 285 nM; IC50 (SF-268): 319 nM; Activity (KB [5]): Dose-dependent effect; Activity (KB [6]): Dose-dependent effect; Activity (KB [7]): 55.6%; Activity (KB [8]): 70.3%; Activity (KB [9]): tde; Activity (KB [10]): tde; Activity (KB [11]): tde; IC50 [12]: 4400 nM; Activity (Bos taurus): Dose-dependent effect; Activity (HCT-116 [13]): Active; Activity (HCT-116 [14]): Active; Activity (HCT-116 [15]): Active |
| COc1ccc2c(C(=O)c3cc(OC)c(OC)c(OC)c3)cn(S(=O)(=O)c3ccccc3)c2c1 | 200 | – |
| COc1ccc2c(C)cc(N/N=C/c3ccccc3O)nc2c1 | 2000 | – |

| SMILES | IC50 (KB [1]) [nM] | further results |
| --- | --- | --- |
| COc1ccc2c(C(=O)c3cc(OC)c(OC)c(OC)c3)cn(CCN3CCCC3)c2c1 | 406 | – |
| CCn1cc(C(=O)c2cc(OC)c(OC)c(OC)c2)c2ccc(OC)cc21 | 64 | – |
| CCCCc1[nH]c2cc(OC)ccc2c1C(=O)c1cc(OC)c(OC)c(OC)c1 | 14.3 | – |
| COc1ccc2c(C(=O)c3cc(OC)c(OC)c(OC)c3)c(CCCCCO)[nH]c2c1 | 57.3 | – |
| CCCCCn1cc(C(=O)c2cc(OC)c(OC)c(OC)c2)c2ccc(OC)cc21 | 350 | – |
| COc1ccc2c(C(=O)c3cc(OC)c(OC)c(OC)c3)cn(-c3ccc([N+](=O)[O-])cc3)c2c1 | 290 | – |
| COc1ccc2c(C(=O)c3cc(OC)c(OC)c(OC)c3)c(C)n(CCN(C)C)c2c1 | 332 | – |
| COc1ccc2c(C(=O)c3cc(OC)c(OC)c(OC)c3)cn(C(C)C)c2c1 | 287 | – |
| COc1ccc2c(C(=O)c3cc(OC)c(OC)c(OC)c3)cn(CCCCCCO)c2c1 | 70 | – |
| CCN(CC)CCn1c(C)c(C(=O)c2cc(OC)c(OC)c(OC)c2)c2ccc(OC)cc21 | 288 | – |
| COc1ccc2c(C(=O)c3cc(OC)c(OC)c(OC)c3)c(CO)[nH]c2c1 | 1.2 | – |
| CCCCCCn1cc(C(=O)c2cc(OC)c(OC)c(OC)c2)c2ccc(OC)cc21 | 455 | – |
| COc1ccc2c(C(=O)c3cc(OC)c(OC)c(OC)c3)cn(CCN3CCCCCC3)c2c1 | 280 | – |
| COc1ccc2c(C(=O)c3cc(OC)c(OC)c(OC)c3)cn(CCN(C)C)c2c1 | 200 | – |
| CCCCCc1[nH]c2cc(OC)ccc2c1C(=O)c1cc(OC)c(OC)c(OC)c1 | 38 | – |
| COc1ccc(-n2cc(C(=O)c3cc(OC)c(OC)c(OC)c3)c3ccc(OC)cc32)cc1 | 207 | – |
| CCOC(=O)n1cc(C(=O)c2cc(OC)c(OC)c(OC)c2)c2ccc(OC)cc21 | 73 | – |
| COc1ccc2c(C(=O)c3cc(OC)c(OC)c(OC)c3)cn(CCN3CCN(C)CC3)c2c1 | 4100 | – |
| CCCCn1c(C)c(C(=O)c2cc(OC)c(OC)c(OC)c2)c2ccc(OC)cc21 | 346 | – |
| COc1ccc2c(C(=O)c3cc(OC)c(OC)c(OC)c3)c(CCCCO)[nH]c2c1 | 6.6 | – |
| COc1ccc2c(C(=O)c3cc(OC)c(OC)c(OC)c3)cn(CCN3CCN(c4ccccn4)CC3)c2c1 | 292 | – |
| COc1ccc2c(C(=O)c3cc(OC)c(OC)c(OC)c3)cn(CCCCCCN(C)C)c2c1 | 2100 | – |
| COc1ccc2c(C(=O)c3cc(OC)c(OC)c(OC)c3)cn(CCCCCN(C)C)c2c1 | 1800 | – |
| COc1ccc2ccccc2c1-c1cc(C(=O)N/N=C/c2cccs2)[nH]n1 | 5700 | – |
